The source of these data is patent US4190725A, “5,6-Diaryl-1,2,4-triazines” (Eli Lilly and Company, priority 1978, dated 1980).

The first experiment relates to Erythemic response. The experiment in a line: Erythemic response inhibition, UV-exposed guinea pig skin (modified method of Winder), topical. Format: in vivo, Albino guinea pigs. Conditions: dose 100 mcg./12 cm.^2, in 0.1 cc. ethanol, groups of four. Here is the method:
A modification of the method of Winder was used to measure the anti-inflammatory activites of the compounds of the present invention; see C. V. Winder, et al., Arch. Int. Pharmacodyn., 116, 261 (1958). Albino guinea pigs of either sex, weighing 225-300 grams, were shaved on the back and chemically depilated (Nair® Lotion Hair Remover, Carter Products, N.Y., N.Y.) 18-20 hours before exposure to ultraviolet light. The animals, in groups of four and bearing identifying ear tags, were treated by applying to an area of skin of about 12 cm.^2 a solution of test compound dissolved in 0.1 cc. of ethanol. The control treatment consisted of administering only the drug vehicle, ethanol, to a group of four animals. Groups of four animals each were given different treatment levels of test compound to obtain dose responses. Random order and blind administration of the test compounds were employed; drug identification was not made until after all animals were graded. Immediately prior to drug application, the animals were exposed in groups of four to a high-intensity ultraviolet light for a measured period of time (usually 4-7 seconds). The ultraviolet light source, a Hanovia Lamp (Kroymayer-Model 10), was placed in contact with the skin of the animal's back. A gummed notebook paper reinforcement was affixed to the lamp lens to provide an unexposed area of contrast for grading the erythema. Beginning one hour after exposure and thereafter at half-hour intervals for another 11/2 hours, the degree of resulting erythema was graded by an arbiturary scoring system based upon the degree of contrast and redness formed. Anti-inflammatory agents delay the development of the erythema and usually have their greatest effect at the initial grading periods. The scores were, therefore, weighted by factors of 4, 3, 2, and 1 at the 1.0, 1.5, 2.0, and 2.5 hour scoring times, respectively. The erythema was graded as follows: […]
______________________________________
Score Appearance of Exposed Area
0 No redness and no contrast
1 Slight redness with a faint
2 Slight to moderate redness
with a distinct outline
3 Marked redness with a distinct
Total scores from each treatment group of four guinea pigs were compared to the control treatment, and the percent inhibition was calculated as follows: [formula]
A dose-response graph was obtained by plotting dose versus percent inhibition, the points representing the average of each treatment group of four guinea pigs. The dose (ED50) in micrograms per 12 cm.^2 (mcg./12 cm.^2) which produced a 50% inhibition of the erythemic response for the particular compound tested was obtained in several instances by extrapolation. Table I below summarizes the results obtained from testing representative compounds of the invention by the foregoing method. The plotted or calculated ED50 for the particular compound tested, where available, is given in the last column of Table I.
`COc1ccc(-c2nnc(SC(C)C)nc2-c2ccc(OC)cc2)cc1` [CH(CH3)2 S 1 OCH3 OCH3, 3-isopropylthio-5,6-bis(4-methoxyphenyl)-1,2,4-triazine]: the “Inhibition % (% Inhibition compared with control)” value was 35%.

Regarding `COc1ccc(-c2nnc(SCc3ccccc3)nc2-c2ccc(OC)cc2)cc1` [CH2 C6 H5 S 1 OCH3 OCH3, 3-benzylthio-5,6-bis(4-methoxyphenyl)-1,2,4-triazine], the “Inhibition % (% Inhibition compared with control)” value was determined as 49%.

Staying with this experiment, now noted: in 0.1 cc. ethanol, 12 cm.^2 skin, groups of four, plotted or calculated, in several instances by extrapolation.
Regarding `COc1ccc(-c2nnc(OC)nc2-c2ccc(OC)cc2)cc1` [CH3 O 1 OCH3 OCH3, 3-methoxy-5,6-bis(4-methoxyphenyl)-1,2,4-triazine], the “ED50 (dose which produced a 50% inhibition of the erythemic response)” value is 7 mcg./12 cm.^2.

On to `COc1ccc(-c2nnc(C)nc2-c2ccc(OC)cc2)cc1` [CH3 -- 0 OCH3 OCH3, 5,6-bis(4-methoxyphenyl)-3-methyl-1,2,4-triazine], for which the “ED50 (dose which produced a 50% inhibition of the erythemic response)” value is recorded as 2.4 mcg./12 cm.^2.

In the case of `CCCCCCSc1nnc(-c2ccc(OC)cc2)c(-c2ccc(OC)cc2)n1` [C6 H13 S 1 OCH3 OCH3, 3-hexylthio-5,6-bis(4-methoxyphenyl)-1,2,4-triazine], the “ED50 (dose which produced a 50% inhibition of the erythemic response)” value is 37.4 mcg./12 cm.^2.

As for `COc1ccc(-c2nnc(SC)nc2-c2ccc(OC)cc2)cc1` [CH3 S 1 OCH3 OCH3, 5,6-bis(4-methoxyphenyl)-3-methylthio-1,2,4-triazine], the “ED50 (dose which produced a 50% inhibition of the erythemic response)” value is listed as 9 mcg./12 cm.^2.

With `CCOc1nnc(-c2ccc(OC)cc2)c(-c2ccc(OC)cc2)n1` [C2 H5 O 1 OCH3 OCH3, 3-ethoxy-5,6-bis(4-methoxyphenyl)-1,2,4-triazine], the “ED50 (dose which produced a 50% inhibition of the erythemic response)” value is on record as 3.1 mcg./12 cm.^2.

Turning to `CCSc1nnc(-c2ccc(OC)cc2)c(-c2ccc(OC)cc2)n1` [C2 H5 S 1 OCH3 OCH3, 3-ethylthio-5,6-bis(4-methoxyphenyl)-1,2,4-triazine], the “ED50 (dose which produced a 50% inhibition of the erythemic response)” value is 21.3 mcg./12 cm.^2.

Take `CCc1nnc(-c2ccc(OC)cc2)c(-c2ccc(OC)cc2)n1` [C2 H5 -- 0 OCH3 OCH3, 3-ethyl-5,6-bis(4-methoxyphenyl)-1,2,4-triazine]: the “ED50 (dose which produced a 50% inhibition of the erythemic response)” value was 4 mcg./12 cm.^2.
